Patent US20190290623A1, “USE OF TIOTROPIUM BROMIDE TO PREVENT PULMONARY OXYGEN TOXICITY” (priority 2018, published 2019)

What was measured:
Type in all cases: in vivo
[1] = tested on: swine exposed to 1.5 ATA hyperbaric oxygen for 17.5 hr; assay: Experiment 1 shallow exposure simulation: pulmonary compliance; conditions: 1.5 ATA O2 17.5 hr; 18 mcg nebulized pre-dive; n=7; p=0.8364
Procedure: (§1) Experiment 1 is designed to evaluate the efficacy of tiotropium bromide administered pre-dive in reducing decrements in pulmonary function due to PO2T following a 17.5 hour, 1.5 ATA hyperbaric oxygen exposure. This dive profile was selected because it was of sufficient duration to elicit persistent pulmonary function decrement in humans.
(§2) The swine were anesthetized with propofol (20 cc, I.V. target, adjusted as needed to optimize sedation), intubated and ventilated. Anesthetized swine were shaved, then ECG and EEG electrodes were placed. Animals were then paralyzed with Atracurium Besylate (50 mg, IV) for accurate pulmonary function measurements of quasi-static and dynamic compliance.
Following baseline pulmonary function measurements, the swine were randomized to receive equivalent volumes of normal saline or tiotropium bromide (18 mcg) via nebulizer. The swine were then ventilated until muscle tone was regained. […]
Next, the swine were switched to 100% oxygen breathing gas and remained at 1.5 ATA for 17.5 hr. […] When fully sedated, the swine were ventilated, paralyzed with Atracurium Besylate, and post-dive measurements of pulmonary function were recorded. During all phases of study the swine were continuously monitored for signs of seizure or distress. […]

[2] = tested on: swine exposed to 1.5 ATA hyperbaric oxygen for 17.5 hr; assay: Experiment 1 shallow exposure simulation: pulmonary capacities; conditions: 1.5 ATA O2 17.5 hr, percent change from baseline
Procedure: as §1, §2
Following baseline pulmonary function measurements, the swine were randomized to receive equivalent volumes of normal saline or tiotropium bromide (18 mcg) via nebulizer. The swine were then ventilated until muscle tone was regained. Sedation was discontinued and the swine were extubated, transported to the hyperbaric chamber and allowed to recover until able to independently stand. Once able to stand, animals had electrode leads attached and IV tubing connected to the ear vein catheter. The chamber hatch was then closed and the swine compressed to 1.5 ATA on air.
Next, the swine were switched to 100% oxygen breathing gas and remained at 1.5 ATA for 17.5 hr. At the end of the 17.5 hour 1.5 ATA oxygen exposure, swine surfaced at a rate of 1 ATA/minutes (ATA/min), were transferred to a Panepinto sling, sedated with diazepam (1.5-2.0 mg/kg, I.V) and reassessed via impulse Oscillometry. The swine were again anesthetized with propofol and intubated. When fully sedated, the swine were ventilated, paralyzed with Atracurium Besylate, and post-dive measurements of pulmonary function were recorded. During all phases of study the swine were continuously monitored for signs of seizure or distress.
Baseline and post-dive assessments of pulmonary compliance were conducted on each animal enrolled in the study. […] These values were expressed as percent change from baseline.

[3] = tested on: swine exposed to 2.5 ATA hyperbaric oxygen for 5.5 hr; assay: Experiment 2: lung wet-dry ratio; conditions: 2.5 ATA O2 5.5 hr; n=13; mean ± SEM; p=0.4566 vs saline
Source text: Lungs were collected from the swine during necropsy. The right lung was collected for measurement of wet-dry ratios. The left lung was fixed via tracheal instillation at a standard pressure of 25 cmH2O with 10% neutral buffered formalin (NBF). The lungs were then sectioned into ten, one centimeter (cm) cranial to caudal serial sections. Three, 1 cm blocks were cut from each section and post-fixed in 10% NBF, trimmed, embedded in paraffin and cut into 5 μm sections for histological staining. Histology slides were de-paraffinized and stained with hematoxylin and eosin. A board-certified veterinary pathologist blinded to group randomization reviewed all gross necropsies, images, and histology slides.
All data were compiled into Excel spreadsheets then imported into Graphpad Prism 7.02 for statistical analysis. […] To allow for accurate data comparison between animals and/or groups the pressure volume curves were separated into inspiratory arms (0 to 40 cm H2O) and expiratory arms (40 to −40 cm H2O). Each arm was then fit using a non-linear regression utilizing a Gaussian distribution model. Volume data was then extrapolated from the curve corresponding to pressures from 0 to 40 cmH2O at 2.5 cm H2O increments. Statistical group-wise comparison of the extrapolated inspiratory and expiratory arms were conducted using repeated measures two-way ANOVA. […]

[4] = tested on: swine exposed to 2.5 ATA hyperbaric oxygen for 5.5 hr; assay: Experiment 2: adverse reactions / seizure observation; conditions: 2.5 ATA oxygen exposure
Source text: Hyperbaric Exposures: Individual animals were then placed into a Plexiglas box (30 in.×42 in.×38 in., manufactured in-house) within a Multiple Large Animal Chamber (MLAC), which is a steel-hulled hyperbaric chamber (450-cubic ft. floodable volume and pressure tested to 1,230 feet of seawater [fsw] equivalent) (Bethlehem Steel Corp, Bethlehem Pa.). Pressure/depth was monitored by a CPG 2500 Digital Pressure Gauge (Mensor Corp., San Marcos, Tex.). Swine were dove in pairs with each treatment group represented. Swine box assignment was alternated with respect to treatment to avoid any effects associated with individual box environmental features. Animals were monitored via closed-circuit television to observe signs of distress related to middle ear barotrauma (e.g. head shaking, nystagmus) and seizure activity. Oxygen concentration was measured and recorded using a portable O2 analyzer (Teledyne Analytical Inst, City of Industry, Calif.). After positioning the animal inside the Plexiglas box, the MLAC was sealed and pressurized using air at the rate of I ATA/minute to a depth of 2.5 ATA. After 2.5 min at a bottom depth equivalent to 2.5 ATA, the breathing gas was switched to 100% O2 and maintained for 5.5 Hrs. After completing 5.5 Hrs on 100% O2, the inspired gas was switched back to air for 3 min. Then, the chamber was decompressed at 1 ATA/minute. […]

`C[N+]1(C)[C@@H]2C[C@@H](OC(=O)C(O)(c3cccs3)c3cccs3)C[C@H]1[C@@H]1O[C@@H]12` [Tiotropium, tiotropium bromide] was tested, and the “pulmonary compliance, baseline vs post-dive” value [1] was “no significant changes”, the “Vital Capacity, Saline vs Tiotropium” value ([2]; p=0.394) was “no significant differences” and the “Expiratory Reserve Volume, Saline vs Tiotropium” value ([2]; p=0.445) was “no significant differences”. The “Inspiratory capacity, Saline vs Tiotropium” value ([2]; p=0.879) was “no significant differences”, the “Wet-Dry ratios of lung” value [3] was 6.067±0.2305 and the “adverse reactions (including seizure)” value [4] was “no adverse reactions”.
